Measured values: patent publication US20120040897A1, “NOVEL DERIVATIVES OF ACYL CYANOPYRROLIDINES” (Sun Pharma Advanced Research Company Ltd., priority 2008, published 2012)

Key:
Format in all cases: biochemical
DPP IV = target: T1, DPP IV (Rattus norvegicus, UniProt P14740); assay: Invitro DPP4 inhibition assay in rat plasma; conditions: substrate Gly-Pro-AMC
T1 construct: from tissue; host or cells: rat plasma
Procedure: The assay system comprises of […] of rat plasma, 20 mM MgCl2 test compound, 50 uM substrate Gly-Pro-AMC & buffer (25 mM HEPES, 140 mM NaCl, 1% BSA, pH 7.8) in a total reaction volume of 100 μl. The test compound was preincubated with plasma and MgCl2 for 10 minutes at 37° C. followed by further incubation of 20 minutes after addition of substrate. The experiment was repeated using vehicle as control. The AMC (7-Amino-4-Methylcoumarin) liberated in the samples was quantified in a Multilable counter at excitation wavelength 355 nm & emission wavelength 462 nm from a standard AMC plot. The DPP4 activity in each sample was represented as pmoles of AMC released/mg/min. Plasma protein was estimated by Lowry's method.

DPP7 = DPP7 (Homo sapiens, UniProt Q9UHL4); assay: Percent inhibition of DPP7 activity; conditions: at 10000 nM concentration
Excerpt: (§1) The following Table 39 gives percent inhibition DPP7, DPP8 & DPP9 activity, as determined for exemplary compounds of the invention

DPP8 = DPP8 (Homo sapiens, UniProt Q6V1X1); assay: Percent inhibition of DPP8 activity; conditions: at 10000 nM concentration
Sequence of DPP8 (Q6V1X1 whole entry, species assumed): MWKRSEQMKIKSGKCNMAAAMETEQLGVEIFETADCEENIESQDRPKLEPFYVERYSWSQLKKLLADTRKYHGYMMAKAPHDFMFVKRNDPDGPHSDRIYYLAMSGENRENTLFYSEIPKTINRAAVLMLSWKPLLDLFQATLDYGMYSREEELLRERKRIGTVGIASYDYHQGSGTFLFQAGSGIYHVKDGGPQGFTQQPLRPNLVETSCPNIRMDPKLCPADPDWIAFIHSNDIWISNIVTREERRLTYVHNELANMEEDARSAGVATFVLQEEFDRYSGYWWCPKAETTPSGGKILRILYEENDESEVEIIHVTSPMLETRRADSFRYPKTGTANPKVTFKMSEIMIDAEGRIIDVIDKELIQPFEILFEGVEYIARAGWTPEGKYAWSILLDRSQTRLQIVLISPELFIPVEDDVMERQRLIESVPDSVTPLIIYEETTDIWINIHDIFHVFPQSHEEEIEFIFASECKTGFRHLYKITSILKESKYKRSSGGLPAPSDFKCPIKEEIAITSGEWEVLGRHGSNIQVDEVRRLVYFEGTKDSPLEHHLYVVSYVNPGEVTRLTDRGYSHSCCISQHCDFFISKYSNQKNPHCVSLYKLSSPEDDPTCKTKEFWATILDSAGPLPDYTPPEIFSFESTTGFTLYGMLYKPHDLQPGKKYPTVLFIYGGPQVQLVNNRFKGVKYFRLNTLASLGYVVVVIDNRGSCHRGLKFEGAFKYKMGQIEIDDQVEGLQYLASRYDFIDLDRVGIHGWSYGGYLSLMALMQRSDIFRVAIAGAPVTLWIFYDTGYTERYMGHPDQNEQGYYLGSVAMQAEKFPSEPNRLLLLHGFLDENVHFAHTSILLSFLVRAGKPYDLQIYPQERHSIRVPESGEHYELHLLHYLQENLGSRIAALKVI
Excerpt: as §1

DPP9 = DPP9 (Homo sapiens, UniProt Q86TI2); assay: Percent inhibition of DPP9 activity; conditions: at 10000 nM concentration
Sequence of DPP9 (Q86TI2 whole entry, species assumed): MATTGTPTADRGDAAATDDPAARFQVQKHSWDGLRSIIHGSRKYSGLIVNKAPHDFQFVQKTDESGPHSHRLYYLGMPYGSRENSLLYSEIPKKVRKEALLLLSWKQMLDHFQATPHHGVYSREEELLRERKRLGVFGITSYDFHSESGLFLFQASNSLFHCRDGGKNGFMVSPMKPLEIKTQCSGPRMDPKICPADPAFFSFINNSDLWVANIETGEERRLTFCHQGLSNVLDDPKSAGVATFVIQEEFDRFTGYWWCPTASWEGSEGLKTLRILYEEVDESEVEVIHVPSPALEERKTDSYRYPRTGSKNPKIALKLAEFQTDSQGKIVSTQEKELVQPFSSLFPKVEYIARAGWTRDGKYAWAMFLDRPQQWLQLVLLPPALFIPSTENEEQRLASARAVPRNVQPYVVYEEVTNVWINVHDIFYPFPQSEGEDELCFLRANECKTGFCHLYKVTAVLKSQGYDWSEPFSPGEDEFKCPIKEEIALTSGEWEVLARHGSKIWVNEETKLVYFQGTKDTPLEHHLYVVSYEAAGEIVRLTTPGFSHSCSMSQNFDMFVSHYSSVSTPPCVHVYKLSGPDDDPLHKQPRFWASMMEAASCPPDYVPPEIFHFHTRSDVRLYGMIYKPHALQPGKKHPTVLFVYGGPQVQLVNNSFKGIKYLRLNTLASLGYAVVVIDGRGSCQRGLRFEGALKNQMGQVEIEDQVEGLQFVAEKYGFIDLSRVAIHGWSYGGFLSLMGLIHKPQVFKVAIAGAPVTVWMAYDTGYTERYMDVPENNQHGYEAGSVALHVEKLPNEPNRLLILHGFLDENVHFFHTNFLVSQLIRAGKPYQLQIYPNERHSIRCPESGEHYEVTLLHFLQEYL
Excerpt: as §1

T1 sequence (P14740 37-767 limits assumed): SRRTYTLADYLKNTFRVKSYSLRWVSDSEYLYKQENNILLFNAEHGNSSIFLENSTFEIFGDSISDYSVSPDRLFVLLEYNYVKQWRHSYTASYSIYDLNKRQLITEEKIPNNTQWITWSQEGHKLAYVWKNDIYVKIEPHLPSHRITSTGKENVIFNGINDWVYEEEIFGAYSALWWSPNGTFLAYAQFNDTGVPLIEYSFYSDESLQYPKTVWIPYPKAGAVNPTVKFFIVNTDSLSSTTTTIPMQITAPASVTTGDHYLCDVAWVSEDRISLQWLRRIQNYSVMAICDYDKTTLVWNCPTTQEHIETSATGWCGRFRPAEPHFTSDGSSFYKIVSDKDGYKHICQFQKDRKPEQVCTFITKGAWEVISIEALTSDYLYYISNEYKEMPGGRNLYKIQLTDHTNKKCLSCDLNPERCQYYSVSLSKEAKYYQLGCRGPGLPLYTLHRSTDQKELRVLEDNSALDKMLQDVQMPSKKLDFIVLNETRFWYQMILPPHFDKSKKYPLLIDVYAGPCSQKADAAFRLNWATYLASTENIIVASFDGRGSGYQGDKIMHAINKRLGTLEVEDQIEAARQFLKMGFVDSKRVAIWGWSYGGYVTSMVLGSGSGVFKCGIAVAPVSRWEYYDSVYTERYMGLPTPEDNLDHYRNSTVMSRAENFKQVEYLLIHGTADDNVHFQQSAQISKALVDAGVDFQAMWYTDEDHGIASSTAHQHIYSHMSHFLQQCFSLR

IC50 (DPP IV) | inhibition at 10 µM (DPP7) | inhibition at 10 µM (DPP8) | inhibition at 10 µM (DPP9) | SMILES
5.98 nM | 0% | 18% | 29% | CC1(C)O[C@@H]2[C@@H](CO[C@@]3(CN4CCC(NCC(=O)N5CCC[C@H]5C#N)CC4)OC(C)(C)O[C@@H]23)O1 [Example 1, 2,3:4,5-di-O-isopropylidene-1-[piperidin-(4-aminoacetylpyrrolidine-2-(S)-carbonitrile}-1-yl]-1-deoxy-β-D-fructopyranose]
18.2 nM |  |  |  | CC1(NCC(=O)N2CCC[C@H]2C#N)CCN(S(=O)(=O)OC[C@H]2O[C@@H]3OC(C)(C)O[C@@H]3[C@H]3OC(C)(C)O[C@H]32)CC1 [Example 112, 1,2:3,4-di-O-isopropylidene-6-[piperidin-{(4-aminoacetylpyrrolidine-2-(S)-carbonitrile)-4-methyl-1-sulfonyl}-1-yl]-D-galactopyranose]
14.3 nM |  |  |  | CCOCCO[C@@H]1O[C@H](CN2CCC(C)(NCC(=O)N3CCC[C@H]3C#N)CC2)[C@H]2OC(C)(C)O[C@@H]12 [Example 123, 2,3-O-Isopropylidene-β-1-O-ethoxyethyl-5-[piperidin-{4-aminoacetylpyrrolidine-2-(S)-carbonitrile}(4-methyl)-1-yl]-5-deoxy-D-ribofuranose]
22.3 nM |  |  |  | CC1(NCC(=O)N2CCC[C@H]2C#N)CCN(C[C@H]2O[C@@H]3OC(C)(C)O[C@@H]3[C@H]2O)CC1 [Example 135, 1,2-O-Isopropylidene-5-[4-methylpiperidin-{4-aminoacetylpyrrolidine-2-(S)-carbonitrile}-1-yl]-5-deoxy-α-D-xylofuranose]
